The EC50 is the concentration that produces a half-maximal response. One may read the IC50 as the midpoint of a concentration-inhibition curve. A word on the Km: it is the substrate concentration at which the rate is half of its maximum.

Series [1] deals with PKA in CHO-K1 cells stably expressing PDE IVa. Put plainly: Whole-cell cAMP dependent protein kinase (PKA) activity ratio. The following applies: CHO-K1; with 1 μM PGI2; read-out: apparent EC50 to activate PKA. Type of series: cell-based. On the procedure: PKA activity ratios were determined as the amount of ^32 P transferred to histone F2B in the presence and absence of cAMP as described in Materials and Methods. Data points represent the fractional PKA activation by incubating cells with the indicated concentrations of inhibitor and […]. Experiments were performed in triplicate. n=3 experiments±SD.
CHO-K1 cells were grown and resuspended as described above except that the Hank's buffer was replaced by a solution containing 0.25M sucrose; 10 mM Tris, pH 7.5; and 0.5 mM EDTA. The cells were preincubated and incubated with 1 μM PGI2 and the indicated compounds at room temperature as described above. The incubations were terminated by the addition of 0.05% Triton X-100 (final) and incubating the cells for 5 min on ice. […] This mixture (final volume 220 μl) was incubated in a waterbath for 30 min at 35° C. and terminated by adding 5 ml of ice cold 5% TCA. The precipatated protein was applied to a Whatman GF/B filter under vacuum and the filter was subsequently washed with 3×5 ml ice cold TCA solution. The amount of -32P incorporation was measured by placing the filters in Aquasol and counting in a BECKMAN LSC 5000. Basal cAMP independent protein kinase activity was determined by the inclusion of 1 μM Protein Kinase A Peptide Inhibitor (19) in the reaction mixture. Maximal cAMP protein kinase activity was determined in the presence of 10 μM cAMP. All determinations were performed in triplicate and activity ratios were calculated as the [(kinase activity in the presence of PDE inhibitor minus cAMP independent kinase activity)/(maximal cAMP kinase activity minus cAMP independent kinase activity)]×100.

The subject of series [2] is CHO-K1 cells stably expressing rhPDE IVa. Put plainly: cells. Type of series: cell-based. The following applies: for effect of preincubation on sensitivity of the enzyme to inhibitors: whole-cell preparation, data not shown. The method, then:
Levels of cAMP were measured in CHO-K1 cells stably expressing PDE IVa enzyme as outlined in Materials and Methods.
CHO-K1 cells were plated at a density of 10^6 cells/175 cm^2 containing complete media with 500 μg/ml hygromycin. The flasks were maintained in an incubator at 37° C. with 5.0% CO2 for 72 hr. The media was changed and the cells were allowed to grow overnight. The cells were washed and dissociated from the plate with PBS containing 0.5 mM EDTA. Cellular cAMP content was measured by centrifuging the cell suspension at 150 g×10 min and resuspending the cells in a Hanks buffered salt solution at a density of 0.2×10^6 cells/ml. The cells were preincubated at room temperature for 15 min and then incubated with 10 μM prostaglandin I2 (PGI2) and the indicated compound for an additional 10 min. Basal cAMP levels were determined by incubating the cells in 0.1% DMSO. The incubations were terminated by the addition of HCl (0.1N final) and the cells measured for cAMP.
Determinations of whole-cell cAMP content were performed by incubating 100 μl reconstituted rabbit anti-succinyl cAMP serum with 100 μl of the whole-cell reaction or known cAMP standard and 30 pmol of 125I-cAMP TME in a […]™ well (300 μl final volume) at room temperature for 18 h. Total cpm (Bo) was determined in the absence of sample or cAMP standard. The reaction mixture was then aspirated out of the well, and individual wells were counted in a BECKMAN LS 6000SC with the window open from 10-999 for 1 min. The data were expressed as %B/Bo=[(standard or sample cpm--non-specific cpm)/(Bo cpm-non-specific cpm)]×100. Non-specific cpm were determined by incubating only the 125I-cAMP TME with assay buffer (50 mM acetate; pH 5.8) in the ScintiStrip™ well. All determinations were performed in triplicate.

The target in series [3] is T1, recombinant full-length human PDE IVa (rhPDEIVa) (Homo sapiens, UniProt P27815, M723I).
T1 construct: a cDNA insert encoding for a full-length human PDE IVa enzyme; made in house; host or cells: CHO-K1 cells, stably transfected (also expressing the prostanoid IP receptor); 100,000xg supernatant of the sonicate
Put plainly: Phosphodiesterase Scintillation Proximity Assay, inhibition of soluble rhPDE IVa (100,000×g supernatant of transfected CHO-K1 cells). In kind it is biochemical. The following applies: broken-cell preparation; data not shown. A general note: Scintillation proximity formats need no separation of bound from free tracer.

In series [4] the target is T1, recombinant full-length human PDE IVa (rhPDEIVa). Described as above. In kind it is biochemical. On the procedure: Inhibition of soluble rhPDEIVa by specific inhibitors was examined at 100 nM substrate. Enzyme activity was determined as described in Materials and Methods using the Amersham SPA beads that specifically bind 5'AMP.
Inhibition of soluble rhPDEIVa by specific inhibitors was examined in the presence of 5 mM to 100 mM MgCl2. Enzyme activity was determined as described in Materials and Methods using the Amersham SPA beads that specifically bind 5'AMP in the presence of […] cAMP substrate.

In series [5] the test system is high-affinity rolipram binding site, rat forebrain membranes. The conditions noted are these: cited from earlier work.
Series [6] in a line: Kinetic characterization of PDE IVa enzymes with cAMP as substrate. In kind it is biochemical. On the procedure: PDE IVa activity was assayed in the 100,000×g supernatant obtained from sonicated CHO-K1 cells stably expressing the enzyme. The enzyme activity was assayed in duplicate at substrate concentrations ranging from 0.2 μM to 30 μM using the Amersham SPA beads as described in Materials and Methods. Shown are the saturation kinetics for the enzyme. The inset graph is a double-reciprocal plot of the kinetic data. Average of 3 separate experiments +/- SD .
Panel A. Shown are the saturation kinetics for the enzyme.PDE IVA activity was assayed in the 100,000×g supernatant obtained from sonicated CHO-K1 cells stably expressing the enzyme. The enzyme activity was assayed in duplicate at substrate concentrations ranging from 0.2 mM to 10 mM using the Amersham SPA beads as described in Materials and Methods. Average of 3 separate experiments +/- SEM . Panel B. Double-reciprocal replot of the averaged saturation data.

Entries after “also recorded” stand apart in the source; their conditions may differ. Like-named read-outs stand apart in the source and are kept apart here.

T1 sequence (P27815 whole entry M723I): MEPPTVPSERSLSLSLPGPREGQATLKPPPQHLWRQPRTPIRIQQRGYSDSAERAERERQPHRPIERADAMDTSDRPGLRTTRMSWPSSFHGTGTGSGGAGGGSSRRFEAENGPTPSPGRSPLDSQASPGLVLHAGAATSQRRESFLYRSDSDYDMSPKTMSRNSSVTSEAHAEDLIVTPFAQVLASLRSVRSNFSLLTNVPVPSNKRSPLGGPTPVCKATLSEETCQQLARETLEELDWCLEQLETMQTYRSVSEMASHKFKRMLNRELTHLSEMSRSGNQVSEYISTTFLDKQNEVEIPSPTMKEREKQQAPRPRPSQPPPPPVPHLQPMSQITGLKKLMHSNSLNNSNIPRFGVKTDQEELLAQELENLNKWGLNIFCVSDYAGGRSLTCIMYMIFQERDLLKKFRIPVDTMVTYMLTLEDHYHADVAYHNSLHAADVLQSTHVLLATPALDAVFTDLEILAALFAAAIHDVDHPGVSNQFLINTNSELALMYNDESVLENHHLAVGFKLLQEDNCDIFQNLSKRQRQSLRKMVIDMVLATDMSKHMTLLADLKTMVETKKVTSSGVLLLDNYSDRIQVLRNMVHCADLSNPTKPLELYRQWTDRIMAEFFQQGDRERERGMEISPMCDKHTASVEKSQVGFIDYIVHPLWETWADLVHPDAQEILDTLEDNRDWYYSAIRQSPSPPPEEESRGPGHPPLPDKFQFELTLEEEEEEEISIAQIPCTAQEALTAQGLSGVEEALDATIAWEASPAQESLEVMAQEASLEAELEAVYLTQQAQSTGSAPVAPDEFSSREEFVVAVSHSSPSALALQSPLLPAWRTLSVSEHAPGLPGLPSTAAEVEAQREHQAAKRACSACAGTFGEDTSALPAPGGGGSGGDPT

As to `COc1ccc([C@H]2CNC(=O)C2)cc1OC1CCCC1` [(S)-rolipram], in series [1], the EC50 is 1000 nM.

Regarding `CO[C@H]([C@H](O)CC(=O)[C@@H](C)[C@@H](O)CC[C@@H](C)[C@@H]1O[C@]2(CC[C@@H](C)[C@H](CC[C@H](C)C(C)=O)O2)CC[C@@H]1C)[C@H](OC(=O)C[C@@H](O)C1=C(C)C(=O)OC1=O)C(C)C` [tautomycin], the “effect of preincubation on sensitivity of the enzyme to inhibitors” value in series [2] and in series [3] was “no effect on the sensitivity of the enzyme to inhibitors” each time.

Take `O=[N+]([O-])c1cccc(-c2cc(Cc3ccncc3)cc3cccnc23)c1` [RS 14203]: the IC50 came to 9 nM in series [4] (100 nM cAMP substrate, read-out: IC50 for inhibition of soluble PDE IVa activity); 140 nM in series [4] (5 mM MgCl2, read-out: IC50, inhibition of soluble rhPDEIVa); 0.5 nM in series [4] (100 mM MgCl2, read-out: IC50, inhibition of soluble rhPDEIVa). Besides, the “effect of increased salt / ionic strength on inhibitory potency (IC50)” value in series [4] (increasing MgCl2 or other salt in assay buffer) is listed as “became more potent; also recorded: salt dependent shift in IC50 from low to high affinity”. Further, the EC50 in series [2] (CHO-K1, with 10 μM PGI2 (b116 prints 10 FM), read-out: EC50 for elevating cellular cAMP) came to 27 nM; in series [1] it was 10 nM. The “cellular cAMP reached” value in series [2] (with PGI2, from 0.2 pmol cAMP/10^4 cells) is listed as 3.6 pmols cAMP/10^4 cells.

`C=C1[C@@H](O)[C@@H]2O[C@]3(CC[C@H](/C=C/[C@@H](C)[C@@H]4CC(C)=C[C@@]5(O[C@H](C[C@@](C)(O)C(=O)O)CC[C@H]5O)O4)O3)CC[C@H]2O[C@@H]1[C@@H](O)C[C@H](C)[C@H]1O[C@@]2(CCCCO2)CC[C@H]1C` [okadaic acid]: the “effect of preincubation on sensitivity of the enzyme to inhibitors” value in series [2] and in series [3] was “no effect on the sensitivity of the enzyme to inhibitors” in each case.

`CCCCC[C@H](O)/C=C/[C@@H]1[C@H]2C/C(=C/CCCC(=O)O)O[C@H]2C[C@H]1O` [PGI2, prostaglandin I2]: the fold induction at 10 µM in series [2] (CHO-K1, 10 min, read-out: increase in basal cAMP content) was determined as 2. The activation at 10 µM in series [2] (CHO-K1, 10 min, PGI2 alone, read-out: increase in basal cAMP levels) was approximately 50%.

Consider `COc1ccc(C2CNC(=O)C2)cc1OC1CCCC1` (racemic) [(±)[3H] rolipram], for which the “increase in high-affinity binding” value in series [5] (100 mM NaCl and 1 mM MgCl2) is 20 fold. In addition, the Bmax in series [5] (rat forebrain membranes) is 19.3 pmol/g rat forebrain.

B1: PDE IVa: recombinant full-length human PDE IVa enzyme stably expressed in CHO-K1 cells (protein, UniProt P27815 1-886, looked up)
chain: MEPPTVPSERSLSLSLPGPREGQATLKPPPQHLWRQPRTPIRIQQRGYSDSAERAERERQPHRPIERADAMDTSDRPGLRTTRMSWPSSFHGTGTGSGGAGGGSSRRFEAENGPTPSPGRSPLDSQASPGLVLHAGAATSQRRESFLYRSDSDYDMSPKTMSRNSSVTSEAHAEDLIVTPFAQVLASLRSVRSNFSLLTNVPVPSNKRSPLGGPTPVCKATLSEETCQQLARETLEELDWCLEQLETMQTYRSVSEMASHKFKRMLNRELTHLSEMSRSGNQVSEYISTTFLDKQNEVEIPSPTMKEREKQQAPRPRPSQPPPPPVPHLQPMSQITGLKKLMHSNSLNNSNIPRFGVKTDQEELLAQELENLNKWGLNIFCVSDYAGGRSLTCIMYMIFQERDLLKKFRIPVDTMVTYMLTLEDHYHADVAYHNSLHAADVLQSTHVLLATPALDAVFTDLEILAALFAAAIHDVDHPGVSNQFLINTNSELALMYNDESVLENHHLAVGFKLLQEDNCDIFQNLSKRQRQSLRKMVIDMVLATDMSKHMTLLADLKTMVETKKVTSSGVLLLDNYSDRIQVLRNMVHCADLSNPTKPLELYRQWTDRIMAEFFQQGDRERERGMEISPMCDKHTASVEKSQVGFIDYIVHPLWETWADLVHPDAQEILDTLEDNRDWYYSAIRQSPSPPPEEESRGPGHPPLPDKFQFELTLEEEEEEEISMAQIPCTAQEALTAQGLSGVEEALDATIAWEASPAQESLEVMAQEASLEAELEAVYLTQQAQSTGSAPVAPDEFSSREEFVVAVSHSSPSALALQSPLLPAWRTLSVSEHAPGLPGLPSTAAEVEAQREHQAAKRACSACAGTFGEDTSALPAPGGGGSGGDPT
modifications: full-length
notes: recombinant full-length human PDE IVa enzyme stably expressed in CHO-K1 cells
Turning to B1, the Vmax in series [6] (soluble PDE IVa from CHO-K1 cells) is 19.5 nM cAMP hydrolyzed/mg. protein per min. For the same molecule, the Km in series [6] (soluble PDE IVa from CHO-K1 cells, read-out: Km of the enzyme for cAMP as a substrate) came to 3.5 µM.

B2: FLAG PDE IVA: purified full-length epitope FLAG PDE IVA enzyme (protein, UniProt P27815 1-886, looked up)
chain: B1 chain
modifications: full-length FLAG epitope tag
Consider B2, for which the Vmax in series [6] (150 mM KCl, 0 mg/ml HSA) was 9.7 ± 0.2 μm/mg/min; in series [6] (150 mM KCl, 3 mg/ml HSA), 4.8 ± 0 μm/mg/min. Also, in series [6] (150 mM KCl, 3 mg/ml HSA, read-out: Km), the Km is 4.8 ± 0.1 µM.
